Data reported in the NIST ThermoML archive (doi:10.1021/je900812v).

Assays:
[1] = Liquid; for mass density: 298.15 K, 101.33 kPa, Pycnometric method
[2] = Boiling temperature at pressure P; conditions: 101.3 kPa; Liquid; Ebulliometric method (Recirculating still)
[3] = refractive index (Na D-line) (dimensionless); conditions: 298.15 K; 101.33 kPa; Liquid; Standard Abbe refractometry

CC(C)CCO [3-methylbutan-1-ol]
Conditions | mass density [kg/m3]
[1] | 807.6

[1]
Conditions | vapor or sublimation pressure [kPa]
336.35 K | 5.27
346.9 K | 9.25
354.2 K | 12.96
354.3 K | 13.24
356.85 K | 14.83
359.75 K | 17.09
360.65 K | 17.61
363.55 K | 20.13
364.05 K | 20.81
365.45 K | 21.98
368.3 K | 25.18
369.5 K | 26.24
371.5 K | 28.64
380.65 K | 41.65
381.65 K | 43.64
389.6 K | 59.58
391.35 K | 64.3
392.65 K | 66.58
395.55 K | 74.19
396.9 K | 77.47
398.25 K | 81.46
403.05 K | 96.21
403.75 K | 99.99
404.55 K | 101.33
405.15 K | 103.46
408.05 K | 114.26
410.95 K | 125.72
413.05 K | 133.86

CCCCCO [pentan-1-ol]
Conditions | Boiling temperature at pressure P [°C] | mass density [kg/m3] | refractive index
[1] | – | 811.2 | –
[2] | 137.80 | – | –
[3] | – | – | 1.4077

Conditions | vapor or sublimation pressure [kPa]
[1], 410.95 K, Ebulliometric method (Recirculating still) | 101.3

CCCCCOC(C)=O [pentyl ethanoate]
Conditions | Boiling temperature at pressure P [°C] | mass density [kg/m3] | refractive index
[1] | – | 872.3 | –
[2] | 148.40 | – | –
[3] | – | – | 1.4005

Conditions | vapor or sublimation pressure [kPa]
[1], 421.55 K, Ebulliometric method (Recirculating still) | 101.3

CC(=O)OCCC(C)C [3-methylbutyl ethanoate]
Conditions | mass density [kg/m3] | refractive index
[1] | 866.4 | –
[3] | – | 1.39893

[1]
Conditions | vapor or sublimation pressure [kPa]
368.15 K | 22.4
369.35 K | 23.4
370.65 K | 24.6
371.85 K | 25.7
372.45 K | 26.3
380.65 K | 35.3
381.75 K | 36.7
387 K | 43.9
387.9 K | 45.2
390.95 K | 50
392.75 K | 52.9
394.25 K | 55.5
395.65 K | 58
398.65 K | 63.7
401.85 K | 70.1
403.35 K | 73.3
407.15 K | 81.9
409.55 K | 87.8
410.95 K | 91.3
412.85 K | 96.3
414.15 K | 99.8
414.85 K | 101.7
415.35 K | 103.1
416.45 K | 106.2
